Assay results reported in patent US20050272040A1, “Method for increasing synaptic growth or plasticity” (priority 2002, published 2005).

Tested on: Hippocampal neurons
Assay: Western blot of VGF protein after BDNF treatment
Assay type: cell-based, rat
From the text: The products of the genes induced following learning may regulate neuronal plasticity at the single-cell level. VGF, like BDNF, is a secreted polypeptide and thus may be relevant for intercellular communication. A functional role for VGF in synaptic plasticity was thus investigated. To determine whether BDNF-induced transcriptional changes of VGF were accompanied by translational alterations, VGF levels were examined following BDNF treatment by western blot analysis. VGF, migrating as a doublet with an apparent molecular weight of 85-90 kD, increased by 1.5-fold within 3 hours of BDNF exposure. VGF protein levels were maximal at 12 hours and remained elevated for 48 hours of continuous BDNF application. Consequently, increased VGF mRNA levels after 3 hours BDNF treatment were associated with enhanced protein translation. VGF protein processing occurs in both neurons and neuroendocrine cells (Trani et al. (1995) J. Neurochem. 65:2441-2449; Salton et al. (2000) supra). The localization of VGF in dissociated hippocampal cultures was examined using a C-terminal antibody (R-15) which labeled both the soma and neurites indicating translocation to the neuronal processes. The expression of VGF was similar to that previously observed in primary neuronal cultures (Benson and Salton (1996) Brain Res. Dev. Brain Res. 96:219-228) and was punctate in appearance. This pattern is consistent with the regulated release of VGF from large dense core vesicles (Trani et al. (1995) supra; Benson and Salton (1996) supra; Possenti et al. (1999) Endocrinology 140:3727-3735) and indicates a physiological role for the peptide.
BDNF-treated and untreated hippocampal neurons plated in equal numbers were solubilized in lysis buffer (20 mM Tris pH 8, 0.5% Triton X-100, 0.5% SDS, protease inhibitor tablet, 1 mM PMSF, and 0.5 mM vanadate). The protein content was determined with the BCA protein assay kit (Pierce Chemical Co, Rockford, Ill.). […] The immunopositive bands were visualized by chemiluminescence using the ECL™ detection kit (NEN, Boston, Mass.), quantitated on a BIO-RAD Gel Doc and normalized to actin.

BDNF: neurotrophin, 50 ng/ml, Preprotech; induces synaptic plasticity in hippocampal neurons
Time VGF protein levels remained elevated (continuous BDNF application): 48 h | Time of maximal VGF protein levels (continuous BDNF application): 12 h | Increase in VGF protein (within 3 hours of BDNF exposure, western blot): 1.5 fold
